Source: the NIST ThermoML archive (doi:10.1016/j.tca.2019.05.011)
Numbers after ± are expanded uncertainties.

Legend:
[1] = Liquid, Closed cell (Static) method
[2] = molar heat capacity at constant pressure; details: 101.33 kPa, Liquid, Vacuum adiabatic calorimetry

For `CC(C)O` [propan-2-ol], the “vapor or sublimation pressure” value ([1]; 297.8 K) was 5.781 ± 0.12 kPa, the “vapor or sublimation pressure” value ([1]; 303.1 K) was 7.995 ± 0.17 kPa and the “vapor or sublimation pressure” value ([1]; 315.8 K) was 16.22 ± 0.34 kPa. For the same compound, the “vapor or sublimation pressure” value ([1]; 332.1 K) was 36.06 ± 0.74 kPa, the “vapor or sublimation pressure” value ([1]; 344.7 K) was 63.92 ± 1.3 kPa and the “molar heat capacity at constant pressure” value ([2]; 190 K) was 111.12 ± 1.8 J/K/mol. The “molar heat capacity at constant pressure” value ([2]; 200 K) was 112.89 ± 1.8 J/K/mol, the “molar heat capacity at constant pressure” value ([2]; 210 K) was 115.01 ± 1.8 J/K/mol and the “molar heat capacity at constant pressure” value ([2]; 220 K) was 117.52 ± 1.8 J/K/mol. For the same compound, the “molar heat capacity at constant pressure” value ([2]; 230 K) was 120.46 ± 1.8 J/K/mol, the “molar heat capacity at constant pressure” value ([2]; 240 K) was 123.87 ± 1.8 J/K/mol and the “molar heat capacity at constant pressure” value ([2]; 250 K) was 127.81 ± 1.8 J/K/mol. For the same compound, the “molar heat capacity at constant pressure” value ([2]; 260 K) was 132.31 ± 1.8 J/K/mol, the “molar heat capacity at constant pressure” value ([2]; 270 K) was 137.41 ± 1.8 J/K/mol and the “molar heat capacity at constant pressure” value ([2]; 280 K) was 143.19 ± 1.8 J/K/mol. The “molar heat capacity at constant pressure” value ([2]; 290 K) was 149.68 ± 1.8 J/K/mol, the “molar heat capacity at constant pressure” value ([2]; 300 K) was 156.94 ± 1.8 J/K/mol and the “molar heat capacity at constant pressure” value ([2]; 310 K) was 165.02 ± 1.8 J/K/mol. The “molar heat capacity at constant pressure” value ([2]; 320 K) was 173.99 ± 1.8 J/K/mol and the “molar heat capacity at constant pressure” value ([2]; 330 K) was 183.9 ± 1.8 J/K/mol.
